In patent US11339150B2, “Benzimidazole compounds as HDAC6 inhibitors” (OnKure, Inc., priority 2019, dated 2022):

Molecular target: T1, HDAC6 (Homo sapiens, UniProt Q9UBN7)
T1 sequence (Q9UBN7 1-1215): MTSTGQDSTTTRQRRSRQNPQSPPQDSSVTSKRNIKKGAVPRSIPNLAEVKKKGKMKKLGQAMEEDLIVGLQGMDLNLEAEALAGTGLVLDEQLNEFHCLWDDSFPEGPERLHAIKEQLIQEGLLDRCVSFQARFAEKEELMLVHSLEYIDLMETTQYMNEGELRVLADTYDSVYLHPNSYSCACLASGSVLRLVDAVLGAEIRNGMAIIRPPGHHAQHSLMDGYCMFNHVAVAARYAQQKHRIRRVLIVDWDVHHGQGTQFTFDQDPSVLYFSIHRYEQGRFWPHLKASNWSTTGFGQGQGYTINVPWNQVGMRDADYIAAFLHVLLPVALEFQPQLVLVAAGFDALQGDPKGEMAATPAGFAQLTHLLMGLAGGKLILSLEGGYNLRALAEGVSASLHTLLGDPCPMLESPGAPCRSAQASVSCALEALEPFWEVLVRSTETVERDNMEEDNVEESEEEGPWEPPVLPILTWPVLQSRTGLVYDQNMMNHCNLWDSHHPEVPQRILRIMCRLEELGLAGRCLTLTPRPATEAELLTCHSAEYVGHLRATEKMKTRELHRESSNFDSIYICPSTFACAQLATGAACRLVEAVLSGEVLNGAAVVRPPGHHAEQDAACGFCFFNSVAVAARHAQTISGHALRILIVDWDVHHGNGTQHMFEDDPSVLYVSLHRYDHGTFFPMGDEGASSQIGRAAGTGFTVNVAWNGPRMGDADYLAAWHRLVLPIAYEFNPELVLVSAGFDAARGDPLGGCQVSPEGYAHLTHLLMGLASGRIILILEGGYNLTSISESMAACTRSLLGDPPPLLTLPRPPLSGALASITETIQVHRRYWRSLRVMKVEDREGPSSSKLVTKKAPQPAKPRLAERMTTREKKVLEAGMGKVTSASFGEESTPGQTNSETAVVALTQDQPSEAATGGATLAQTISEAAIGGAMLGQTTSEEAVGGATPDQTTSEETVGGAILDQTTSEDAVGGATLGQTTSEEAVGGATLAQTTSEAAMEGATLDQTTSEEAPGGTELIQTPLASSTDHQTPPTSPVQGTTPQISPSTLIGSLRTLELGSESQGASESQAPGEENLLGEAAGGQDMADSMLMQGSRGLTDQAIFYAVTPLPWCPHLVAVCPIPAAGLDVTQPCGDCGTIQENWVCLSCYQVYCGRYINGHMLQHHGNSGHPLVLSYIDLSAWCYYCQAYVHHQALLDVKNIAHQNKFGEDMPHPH
Assay: HDAC assay (fluorogenic substrate), HDAC6
Assay type: biochemical
Description: Base Reaction buffer: 50 mM Tris-HCl, pH8.0, 137 mM NaCl, 2.7 mM KCl, and 1 mM MgCl2. Add fresh: 1 mg/ml BSA, 1% DMSO
Fluorogenic HDAC General Substrate: 50 μM, Arg-His-Lys-Lys(Ac)
• 1. Deliver 2× enzyme in wells of reaction plate except No Enzyme control wells. Add buffer in No En wells. • 2. Deliver compounds in 100% DMSO into the enzyme mixture by Acoustic technology (Echo550; nanoliter range). Spin down and pre-incubation. • 3. Deliver 2× Substrate Mixture (Fluorogenic HDAC Substrate and co-factor if applicable) in all reaction wells to initiate the reaction. Spin and shake. • 4. Incubate for 30 min for Class 2A, 1 hr for HDAC1, 2, 3, and 6, and 2 hr for the rest of HDACs and SIRTs at 30° C. with seal. Development Step: • 5. Add Developer with Trichostatin A (or Nicotinamide for SIRTs) to stop the reaction and to generate fluorescent color. • 6. Kinetic measurement for 1.5 hr with Envision with 15 min interval. (Ex/Em=360/460 nm) • 7. Take endpoint reading for analysis after the development reaches plateau.

**Q.** Which inhibition at 10 µM does the source give for OCCn1cnc2c(-c3ccc(F)cc3C(F)(F)F)cc(Nc3ncc(-c4nnc(C(F)F)o4)cn3)cc21 [Example 33, 2-(6-((5-(5-(difluoromethyl)-1,3,4-oxadiazol-2-yl)pyrimidin-2-yl)amino)-4-(4-fluoro-2-(trifluoromethyl)phenyl)-1H-benzo[d]imidazol-1-yl)ethan-1-ol] here?
**A.** > 90%

**Q.** With FC(F)c1nnc(-c2cnc(Nc3cc(-c4ccncc4)c4nc[nH]c4c3)nc2)o1 [Example 35, N-(5-(5-(difluoromethyl)-1,3,4-oxadiazol-2-yl)pyrimidin-2-yl)-4-(pyridin-4-yl)-1H-benzo[d]imidazol-6-amine] as the molecule, how does the inhibition at 10 µM read?
**A.** > 90%

**Q.** OC1CCN(CCn2cnc3c(-c4ccccc4)cc(Nc4ncc(-c5nnc(C(F)F)o5)cn4)cc32)C1 (stereo not shown) [Example 16, 1-(2-(6-((5-(5-(difluoromethyl)-1,3,4-oxadiazol-2-yl)pyrimidin-2-yl)amino)-4-phenyl-1H-benzo[d]imidazol-1-yl)ethyl)pyrrolidin-3-ol] was tested. Which inhibition at 10 µM did it give?
**A.** > 90%

**Q.** For CN(C)CCn1cnc2c(-c3ccccc3)cc(Nc3ncc(-c4nnc(C(F)F)o4)cn3)cc21 [Example 15, N-(5-(5-(difluoromethyl)-1,3,4-oxadiazol-2-yl)pyrimidin-2-yl)-1-(2-(dimethylamino)ethyl)-4-phenyl-1H-benzo[d]imidazol-6-amine], which inhibition at 10 µM is on record?
**A.** > 90%

**Q.** With FC(F)c1nnc(-c2cnc(Nc3cc(C(F)(F)F)c4nc[nH]c4c3)nc2)o1 [Example 23, N-(5-(5-(difluoromethyl)-1,3,4-oxadiazol-2-yl)pyrimidin-2-yl)-4-(trifluoromethyl)-1H-benzo[d]imidazol-6-amine] as the molecule, how does the inhibition at 10 µM read?
**A.** > 90%

**Q.** How did the inhibition at 10 µM turn out when Cn1nccc1-c1cc(Nc2ncc(-c3nnc(C(F)F)o3)cn2)cc2[nH]cnc12 [Example 40, N-(5-(5-(difluoromethyl)-1,3,4-oxadiazol-2-yl)pyrimidin-2-yl)-4-(1-methyl-1H-pyrazol-5-yl)-1H-benzo[d]imidazol-6-amine] was run?
**A.** > 90%

**Q.** How did the inhibition at 10 µM turn out when FC(F)c1nnc(-c2cnc(Nc3cc(Br)c4nc[nH]c4c3)nc2)o1 [Example 2, 4-bromo-N-(5-(5-(difluoromethyl)-1,3,4-oxadiazol-2-yl)pyrimidin-2-yl)-1H-benzo[d]imidazol-6-amine] was run?
**A.** > 90%

**Q.** OCCn1cnc2cc(Nc3ncc(-c4nnc(C(F)F)o4)cn3)cc(-c3ccccc3)c21 [Example 24, 2-(5-((5-(5-(difluoromethyl)-1,3,4-oxadiazol-2-yl)pyrimidin-2-yl)amino)-7-phenyl-1H-benzo[d]imidazol-1-yl)ethan-1-ol] was tested. Which inhibition at 10 µM did it give?
**A.** > 90%

**Q.** Which inhibition at 10 µM does the source give for Fc1ccc(Cl)cc1-c1cc(Nc2ncc(-c3nnc(C(F)F)o3)cn2)cc2[nH]cnc12 [Example 45, 4-(5-chloro-2-fluorophenyl)-N-(5-(5-(difluoromethyl)-1,3,4-oxadiazol-2-yl)pyrimidin-2-yl)-1H-benzo[d]imidazol-6-amine] here?
**A.** > 90%

**Q.** Which inhibition at 10 µM does the source give for CC(C)(C)c1cc(Nc2ncc(-c3nnc(C(F)F)o3)cn2)cc2c1ncn2CCO [Example 34, 2-(4-(tert-butyl)-6-((5-(5-(difluoromethyl)-1,3,4-oxadiazol-2-yl)pyrimidin-2-yl)amino)-1H-benzo[d]imidazol-1-yl)ethan-1-ol] here?
**A.** > 90%

**Q.** Which inhibition at 10 µM does the source give for OCCn1cnc2c(-c3ccccc3)cc(Nc3ncc(-c4nnc(C(F)F)o4)cn3)cc21 [Example 14, 2-(6-((5-(5-(difluoromethyl)-1,3,4-oxadiazol-2-yl)pyrimidin-2-yl)amino)-4-phenyl-1H-benzo[d]imidazol-1-yl)ethan-1-ol] here?
**A.** > 90%

**Q.** FC(F)c1nnc(-c2cnc(Nc3cc(-c4ccc(N5CCOCC5)cc4)c4nc[nH]c4c3)nc2)o1 [Example 17, N-(5-(5-(difluoromethyl)-1,3,4-oxadiazol-2-yl)pyrimidin-2-yl)-4-(4-morpholinophenyl)-1H-benzo[d]imidazol-6-amine] was tested. Which inhibition at 10 µM did it give?
**A.** > 90%

**Q.** With FC(F)c1nnc(-c2cnc(NCc3cc(-c4ccccc4)c4nc[nH]c4c3)nc2)o1 [Example 20, 5-(5-(difluoromethyl)-1,3,4-oxadiazol-2-yl)-N-((4-phenyl-1H-benzo[d]imidazol-6-yl)methyl)pyrimidin-2-amine] as the molecule, how does the inhibition at 10 µM read?
**A.** > 90%
